In patent publication US20250011322A1, “MEDICAL COMPOUND FOR THE INHIBITION OF ALDEHYDE DEHYDROGENASE SUBTYPE 1A” (Theranib Inc., priority 2023, published 2025):
“Also recorded” adds a separate entry of the source.

Assays:
[1] = system: ALDH1A3 target genes (RARB, DHRS3, ELF3, RARRES1); assay: Expression of ALDH1A3 target genes in breast cancer cell lines by QPCR; format: cell-based; details: 24 hours of treatment; for Expression of ALDH1A3 target genes in ALDH1A3-expressing lines: ALDH1A3-overexpressing MDA-MB-231, MDA-MB-468 and HCC1806 cells; for Expression of ALDH1A3 target genes in native line: native MDA-MB-231 cells
Experimental: FIGS. 5A, 5B, 5C. […] Expression of DHRS3, RARB, ELF3, and RARRES1 in MDA-MB-231 cells with ALDH1A3 overexpression (FIG. 5A), MDA-MB-468 cells (with ALDH1A3 shRNA knockdown as control, FIG. 5B), and HCC1806 (with ALDH1A3 shRNA knockdown as control, FIG. 5C) is determined 24 hours after treatment with 0, 1, 10, or 100 nM compound 1 by QPCR. Significance determined by one-way Anova, p-value […], <0.01=**, <0.001=***, <0.0001=****.
Subsequently, to confirm the direct inhibitory activity of the tested compounds on the enzymatic isoform of interest, their effect on the expression of ALDH1A3 target genes, and in particular of RARB, DHRS3, ELF3, and RARRES1, was investigated in the aforementioned cell lines.

[2] = biological target: T1, ALDH1A3 (Homo sapiens, UniProt P47895); assay: Aldefluor test in MDA-MB-231 cells overexpressing ALDH1A3; format: cell-based; details: for IC50: Aldefluor test; for Inhibition of ALDH1A3-induced Aldefluor activity: dilution series of compound
T1 construct: expressed in transfected cells; host or cells: MDA-MB-231
T1 sequence (P47895 1-512): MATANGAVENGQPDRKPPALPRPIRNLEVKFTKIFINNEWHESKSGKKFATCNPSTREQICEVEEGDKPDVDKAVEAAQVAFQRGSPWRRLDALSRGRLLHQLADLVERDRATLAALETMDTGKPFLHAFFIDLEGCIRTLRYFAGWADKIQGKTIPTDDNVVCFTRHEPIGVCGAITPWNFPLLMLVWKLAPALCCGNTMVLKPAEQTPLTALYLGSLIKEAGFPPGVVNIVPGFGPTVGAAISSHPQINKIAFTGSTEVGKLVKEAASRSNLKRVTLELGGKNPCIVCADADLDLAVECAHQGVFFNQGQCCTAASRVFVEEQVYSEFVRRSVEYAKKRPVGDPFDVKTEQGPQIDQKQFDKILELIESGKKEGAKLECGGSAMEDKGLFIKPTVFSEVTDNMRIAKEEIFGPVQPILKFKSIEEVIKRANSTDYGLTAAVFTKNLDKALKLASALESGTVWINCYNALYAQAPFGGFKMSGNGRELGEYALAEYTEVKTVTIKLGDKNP
Experimental: (§1) In vitro assays were conducted on breast cancer cell lines MDA-MB-231, MDA-MB-468, and HCC1806 cells. Specifically, the MDA-MB-231 cell line, characterized by a low expression of ALDH1A, was used as such or after being engineered to overexpress the ALDH1A1 or ALDH1A3 isoform, while the MDA-MB-468 and HCC1806 cell lines, characterized by a high expression of ALDH1A3 were used as such or after being knocked down for the ALDH1A3 isoform (FIG. 1). […] The experiments were conducted using the Aldefluor® test, specific for aldehyde dehydrogenases.

[3] = Toxicity readouts in the xenograft study: body weight, serum ALT, serum creatinine; format: in vivo, mice
Experimental: (§2) In vivo experimentation then ensued. The in vivo assays were conducted using eight-week-old female NOD/SCID mice orthotopically injected with 2×10^6 native or ALDH1A3-overexpressing MDA-MB-231 cells. 60 female NOD-SCID mice had approximately 2,000,000 MDA-MB-231 cells injected into a 5th mammary fat pad. 30 mice were injected with MDA-MB-231 bearing a vector control (Groups 1-3), and 30 mice were injected with MDA-MB-231 bearing an ALDH1A3 overexpression vector (Groups 4-6). On day 15 of inoculation, the treatment phase began. Groups 1 and 4 (n=10, 10 respectively) received saline i.p. injections 100 uL every day for 26 days. Groups 2 and 5 (n=10, 10) received 0.4 mg/kg drug i.p. in 100 uL saline every day for 26 days. Groups 3 and 6 (n=10, 10) received 4.0 mg/kg drug i.p. in 100 uL saline every day for 26 days. Caliper measurements of tumors and body weights were taken throughout the treatment phase. After 26 days, all mice were euthanized, the tumors were harvested, and blood was drawn for analysis.
This is evidenced by the trend over time of their body weight (FIG. 7) and also the analysis of alanine aminotransferase (ALT) and creatinine levels in serum collected from terminal animals (FIGS. 12A and 12B).

[4] = system: MDA-MB-231 tumors; assay: Orthotopic MDA-MB-231 xenograft (native or ALDH1A3-overexpressing) in NOD/SCID mice; format: in vivo; details: for RARB level in tumors (pharmacodynamic analysis): ALDH1A3-overexpressing MDA-MB-231 tumors harvested day 41, treatment from day 15
Experimental: as §2
On day 15, the animals were treated with compound 1, administered daily intraperitoneally at a concentration of 0.4 mg/Kg or 4 mg/Kg, then constantly monitored for body weight increase (FIG. 7) and tumor volume (FIG. 8). Once the tumors became palpable, we started treatment of the animals (day 15). After 26 days of treatment, the animals were sacrificed and the tumors were collected and evaluated for size (FIGS. 8 and 9) and weight (FIG. 10).

[5] = biological target: T2, ALDH1A1 (Homo sapiens, UniProt P00352); assay: Aldefluor test in MDA-MB-231 cells overexpressing ALDH1A1; format: cell-based
T2 construct: expressed in transfected cells; host or cells: MDA-MB-231
T2 sequence (P00352 1-501): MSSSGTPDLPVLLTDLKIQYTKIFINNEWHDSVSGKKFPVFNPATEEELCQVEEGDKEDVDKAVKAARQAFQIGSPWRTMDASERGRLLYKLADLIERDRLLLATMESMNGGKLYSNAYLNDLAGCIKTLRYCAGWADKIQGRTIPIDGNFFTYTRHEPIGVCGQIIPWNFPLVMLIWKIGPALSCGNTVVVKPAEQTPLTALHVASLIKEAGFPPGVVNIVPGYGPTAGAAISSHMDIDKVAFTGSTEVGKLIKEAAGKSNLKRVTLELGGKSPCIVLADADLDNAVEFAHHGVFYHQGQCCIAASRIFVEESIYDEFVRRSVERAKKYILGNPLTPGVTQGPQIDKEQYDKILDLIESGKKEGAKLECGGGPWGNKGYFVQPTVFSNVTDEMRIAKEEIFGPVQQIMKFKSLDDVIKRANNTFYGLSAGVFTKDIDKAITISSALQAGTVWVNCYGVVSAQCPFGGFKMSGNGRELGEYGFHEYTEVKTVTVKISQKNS
Experimental: as §1

[6] = MDA-MB-231 cells overexpressing ALDH1A3
[7] = MDA-MB-231 cells with ALDH1A3 overexpression
[8] = daily treatment from day 15, measured on day 41, mice

| SMILES | Expression of ALDH1A3 target genes in ALDH1A3-expressing lines [1] | Expression of ALDH1A3 target genes in native line [1] | IC50 [2, 6] [nM] | Inhibition of ALDH1A3-induced Aldefluor activity [2, 7] | Toxicity (overall) ([3]; daily i.p. 0.4 or 4 mg/Kg for 26 days, mice) | Serum alanine aminotransferase (ALT) [3, 8] | Serum creatinine [3, 8] | Body weight ([3]; mice injected with MDA-MB-231 cells, treatment from day 15) | Tumor growth (volume, weight) induced by ALDH1A3 ([4]; 0.4 or 4 mg/Kg i.p. daily for 26 days from day 15, NOD/SCID mice) | RARB level in tumors (pharmacodynamic analysis) [4] | RARB level in tumors (pharmacodynamic analysis) ([4]; listed as compound 1) | Inhibition of Aldefluor assay activity of ALDH1A1 ([5]; 100 uM) | Inhibition of Aldefluor activity induced by ALDH1A1 overexpression ([5]; all plotted concentrations) | Inhibition of Aldefluor assay activity of ALDH1A3 ([2]; 100 uM, MDA-MB-231 cells overexpressing ALDH1A3) | Amounts distinguishable from control counts in the plot of Aldefluor count ([2]; MDA-MB-231 cells with ALDH1A3 overexpression, all other concentrations not distinguishable from control) [µM] |
| --- | --- | --- | --- | --- | --- | --- | --- | --- | --- | --- | --- | --- | --- | --- | --- |
| CC(=O)c1ccc(-c2cc(-c3ccc(C(C)=O)cc3)c3nc(-c4ccccc4)cn3c2)cc1 [Compound 1, 1,1′-((2-phenylimidazo[1,2-a]pyridine-6,8-diyl)bis(4,1-phenylene))bis(ethan-1-one)] | statistically significantly reduced the expression of the target genes; also recorded: specifically inhibit the expression of ALDH1A3 target genes | neither compound 1 nor compound 2 produced significant results | 1.9 | inhibits Aldefluor activity | no detectable toxicity | does not affect | does not affect | No significant changes were observed | reduce, in a statistically significant way, the increased tumor growth | reduces ALDH1A3-inducible RARB expression | significantly reduced RARB level | did not inhibit | does not inhibit Aldefluor activity | – | – |
| CC(=O)c1ccc(-c2cc(-c3ccc(C#N)cc3)cn3cc(-c4ccccc4)nc23)cc1 [Compound 2, 4-(8-(4-acetylphenyl)-2-phenylimidazo[1,2-a]pyridin-6-yl)benzonitrile] | statistically significantly reduced the expression of the target genes | neither compound 1 nor compound 2 produced significant results | 9.4 | inhibits Aldefluor activity | – | – | – | – | – | – | – | – | – | – | – |
| CCN(CC)c1ccc(C=O)cc1 [DEAB, 4-Diethylaminobenzaldehyde, reference compound] | – | – | – | – | – | – | – | – | – | – | – | – | – | inhibits | – |
| c1ccc(-c2ccc3nc(-c4ccccc4)cn3c2)cc1 [GA11, reference compound] | – | – | ~100000 | inhibit | – | – | – | – | – | – | – | – | – | – | 100 |
